Measured values taken from patent publication US10696615B2, “Prenylated hydroxystilbenes” (The University of Sydney, priority 2011, dated 2020).
≈ marks a conversion by molar mass, not a printed value. Like-named read-outs stand apart in the source and are kept apart here.

Tests used:
[1] = background statement; cited from earlier work
Staphylococcus aureus = assay: MIC screening, broth microdilution (CLSI)
Protocol: (§1) The minimum inhibition concentration (MIC) screening was performed with 14 bacterial strains and 4 compounds. The MICs were determined by the broth microdilution method according to the Clinical and Laboratory Standards Institute (CLSI) guidelines. The MIC screening was performed on 96-well plates containing the compounds in serial 2-fold dilutions from 64 to 0.06 μg/ml. The bacterial inoculations were prepared in cation-adjusted Mueller Hinton medium broth from cultures grown on appropriate agar plates which are prepared freshly every week. The growth controls and sterile controls were included in each assay plates. The assay plates were incubated in an ambient-air incubator at 35±2° C. for 16-20 hr (24 hr for MRSA), and bacterial growth was observed and recorded.
(§2) Compound stock solutions were prepared in 100% DMSO on the day of MIC screening and use immediately. Compound stock concentration=[(highest testing concentration)×103 μl/3 μl] (e.g. if the required highest testing concentration is 64 μg/ml in assay plates, stock concentration=64×103/3=2.2 mg/ml). The potency of testing compound is assumed as 100% unless otherwise stated whereas the potency of reference compound is calculated according to manufacturer's analysis data.
(§3) Eleven two-fold dilutions per compound were made then transferred 3 μl to each well of test plate. Final concentration of DMSO in the MIC screening is ˜3%.
(§4) B. Transfer colonies from fresh culture plates into 5 ml of saline with sterile loops and mix well. Measure and adjust turbidity to 0.5 McFarland barium sulphate standard using a turbidity meter. Alternatively, transfer 1-2 colonies into 500 μl of saline and adjust OD625 to ˜0.1 using a plate reader. […] Dilute bacterial inoculum 1:280 for Gram-positive and fastidious strains and 1:400 for Gram-negative strains into corresponding medium broth (CAMHB, CAMHB+3% lysed horse blood, HTM) (e.g. 35.6 μl of inoculum into 10 ml of CAMHB or 25 μl of inoculum into 10 ml of CAMHB). H. influenzae: HTM Streptococci: CAMHB+3% lysed horse blood Other strains in the panel: CAMHB 2.4. Prepare Assay Plates A. Add 100 μl of the bacterial inoculum to each well of the compound plates except wells B12, D12, F12 and H12. B. Add 100 μl of medium broth to wells B12, D12, F12 and H12 of the compound plates. […] Stack four plates together and cover with a sterile plate lid. Incubate in an ambient-air incubator at 35±2° C. for 16-20 hours (24 hours for MRSA). […] Perform Colony Counts A. Dilute the bacterial inoculum (0.5 McFarland) to a serial of 10-1 to 10-7 in saline solution (e.g. 100 μl bacterial inoculum+900 μl of saline). B. Spread 100 μl of each dilution (10-4, 10-5, 10-6, and 10-7) onto CAMHA plates in triplication, let the liquid soak into the agar for 10 minutes, invert the agar plates and incubate for 24 hr at 35±2° C. […] Record MICs and Calculate CFUs A. Open the compound plate layout in the compound management system, and check the assay plate barcode. B. Place the assay plate on the top of MIC reader, and adjust the magnification mirror to read each wells, record growth status as raw data. (Optional) Record photo image of each assay plates using high-speed high-resolution scanner. […] Determine MIC break points according to CLSI guideline. D. Count colonies and calculate CFU of bacterial inoculum.

Pseudomonas aeruginosa = assay: MIC screening, broth microdilution (CLSI)
Protocol: as §1, §2, §3, §4

Enterococci = assay: MIC screening, broth microdilution (CLSI)
Protocol: as §1
(§5) A. Revive bacterial strains from storage frozen (−80° C.) two days before the MIC screening. Streak onto surface of appropriate agar plates, and incubate the plates for 20-24 hr at 35±2° C. in an appropriate atmosphere.
Enterococci: TSA II, ambient air
(§6) B. Select 5-10 well-isolated colonies of similar morphology and restreak onto fresh agar plates using sterile loops. Incubate the plates for 20-24 hr at 35±2° C. in an appropriate atmosphere as above.
as §2, §3
B. Transfer colonies from fresh culture plates into 5 ml of saline with sterile loops and mix well. Measure and adjust turbidity to 0.5 McFarland barium sulphate standard using a turbidity meter. Alternatively, transfer 1-2 colonies into 500 μl of saline and adjust OD625 to ˜0.1 using a plate reader. C. Dilute bacterial inoculum 1:280 for Gram-positive and fastidious strains and 1:400 for Gram-negative strains into corresponding medium broth (CAMHB, CAMHB+3% lysed horse blood, HTM) (e.g. 35.6 μl of inoculum into 10 ml of CAMHB or 25 μl of inoculum into 10 ml of CAMHB). H. influenzae: HTM Streptococci: CAMHB+3% lysed horse blood Other strains in the panel: CAMHB 2.4. Prepare Assay Plates A. Add 100 μl of the bacterial inoculum to each well of the compound plates except wells B12, D12, F12 and H12. B. Add 100 μl of medium broth to wells B12, D12, F12 and H12 of the compound plates. C. Stack four plates together and cover with a sterile plate lid. Incubate in an ambient-air incubator at 35±2° C. for 16-20 hours (24 hours for MRSA). […] Perform Colony Counts A. Dilute the bacterial inoculum (0.5 McFarland) to a serial of 10-1 to 10-7 in saline solution (e.g. 100 μl bacterial inoculum+900 μl of saline). B. Spread 100 μl of each dilution (10-4, 10-5, 10-6, and 10-7) onto CAMHA plates in triplication, let the liquid soak into the agar for 10 minutes, invert the agar plates and incubate for 24 hr at 35±2° C. […] Record MICs and Calculate CFUs A. Open the compound plate layout in the compound management system, and check the assay plate barcode. B. Place the assay plate on the top of MIC reader, and adjust the magnification mirror to read each wells, record growth status as raw data. (Optional) Record photo image of each assay plates using high-speed high-resolution scanner. C. Determine MIC break points according to CLSI guideline. D. Count colonies and calculate CFU of bacterial inoculum.

[2] = system: Acinetobacter calcoaceticus; assay: MIC screening, broth microdilution (CLSI)
Protocol: as §1, §2, §3, §4

MRSA = assay: MIC screening, broth microdilution (CLSI)
Protocol: The MICs were determined by the broth microdilution method according to the Clinical and Laboratory Standards Institute (CLSI) guidelines. The MIC screening was performed on 96-well plates containing the compounds in serial 2-fold dilutions from 64 to 0.06 μg/ml. The bacterial inoculations were prepared in cation-adjusted Mueller Hinton medium broth from cultures grown on appropriate agar plates which are prepared freshly every week. The growth controls and sterile controls were included in each assay plates. The assay plates were incubated in an ambient-air incubator at 35±2° C. for 16-20 hr (24 hr for MRSA), and bacterial growth was observed and recorded.
as §5, §6, §2, §3, §4

Haemophilus influenzae = assay: MIC screening, broth microdilution (CLSI)
Protocol: as §1, §5
Haemophilus influenzae: chocolate agar, 5% CO2
as §6, §2, §3, §4

Escherichia coli = assay: MIC screening, broth microdilution (CLSI)
Protocol: as §1, §2, §3, §4

Streptococci = assay: MIC screening, broth microdilution (CLSI)
Protocol: as §1, §5
Streptococci: TSA II, 5% CO2
as §6, §2, §3, §4

Klebsiella pneumoniae = assay: MIC screening, broth microdilution (CLSI)
Protocol: as §1, §2, §3, §4

For `Oc1ccc(/C=C/c2cc(O)cc(O)c2)cc1` [Resveratrol], the oral bioavailability [1] is listed as “very poor oral bioavailability”.

`C[C@H]1COc2c(N3CCN(C)CC3)c(F)cc3c(=O)c(C(=O)O)cn1c23` [Levofloxacin, reference compound] showed an MIC (Staphylococcus aureus; ATCC29213, Staphylococcus aureus (ATCC 29213), Exp 1) of 0.5 µg/mL (≈ 1.38 µM), an MIC (Staphylococcus aureus; ATCC29213, Staphylococcus aureus (ATCC 29213), Exp 2) of 0.25 µg/mL (≈ 0.692 µM) and an MIC (Staphylococcus aureus; Staphylococcus aureus (Levofloxacin-resistant), Exp 1) of 64 µg/mL (≈ 177 µM). It also gave an MIC (Staphylococcus aureus; Staphylococcus aureus (Levofloxacin-resistant), Exp 2) of 64 µg/mL (≈ 177 µM), an MIC (Pseudomonas aeruginosa) of 1 µg/mL (≈ 2.77 µM) and an MIC (Pseudomonas aeruginosa; Exp 2) of 1 µg/mL (≈ 2.77 µM). It also gave an MIC (Enterococci; Enterococcus faecalis, ATCC29212, Enterococcus faecalis (ATCC 29212), Exp 1) of 1 µg/mL (≈ 2.77 µM), an MIC (Enterococci; Enterococcus faecalis, ATCC29212, Enterococcus faecalis (ATCC 29212), Exp 2) of 1 µg/mL (≈ 2.77 µM) and an MIC (Enterococci; Enterococcus faecium, ATCC700221, Enterococcus faecium (ATCC 700221), Exp 1) greater than 64 µg/mL. The MIC (Enterococci; Enterococcus faecium, ATCC700221, Enterococcus faecium (ATCC 700221), Exp 2) was greater than 64 µg/mL, the MIC [2] was 4 µg/mL (≈ 11.1 µM) and the MIC ([2]; Exp 2) was 4 µg/mL (≈ 11.1 µM). It also gave an MIC (MRSA; Staphylococcus aureus (ATCC 43300), Exp 2) of 0.25 µg/mL (≈ 0.692 µM), an MIC (MRSA; Staphylococcus aureus (MRSA, Erythromycin & clindamycin-resistant), Exp 2) of 8 µg/mL (≈ 22.1 µM) and an MIC (MRSA; Staphylococcus aureus, ATCC43300 / MRSA) of 0.25 µg/mL (≈ 0.692 µM). It also gave an MIC (MRSA; Staphylococcus aureus, MRSA) of 8 µg/mL (≈ 22.1 µM), an MIC (Haemophilus influenzae) of less than 0.0625 µg/mL and an MIC (Haemophilus influenzae; Exp 2) of less than 0.0625 µg/mL. For the same compound, the MIC (Escherichia coli; Exp 1) was less than 0.0625 µg/mL, the MIC (Escherichia coli; Exp 2) was less than 0.0625 µg/mL and the MIC (Streptococci; Streptococcus pneumoniae, ATCC49619, Streptococcus pneumoniae (ATCC 49619), Exp 1) was 0.5 µg/mL (≈ 1.38 µM). It also gave an MIC (Streptococci; Streptococcus pneumoniae, ATCC49619, Streptococcus pneumoniae (ATCC 49619), Exp 2) of 0.5 µg/mL (≈ 1.38 µM), an MIC (Streptococci; Streptococcus pneumoniae, Streptococcus pneumoniae (Erythromycin-resistant), Exp 1) of 1 µg/mL (≈ 2.77 µM) and an MIC (Streptococci; Streptococcus pneumoniae, Streptococcus pneumoniae (Erythromycin-resistant), Exp 2) of 1 µg/mL (≈ 2.77 µM). It also gave an MIC (Streptococci; Streptococcus pyogenes, ATCC700942, Streptococcus pyogenes (ATCC 700942), Exp 1) of 0.5 µg/mL (≈ 1.38 µM), an MIC (Streptococci; Streptococcus pyogenes, ATCC700942, Streptococcus pyogenes (ATCC 700942), Exp 2) of 0.5 µg/mL (≈ 1.38 µM) and an MIC (Klebsiella pneumoniae) of 1 µg/mL (≈ 2.77 µM). It also gave an MIC (Klebsiella pneumoniae; Exp 2) of 1 µg/mL (≈ 2.77 µM).
